The test system of data set [1] is Ent. cloacae. The data set is described as follows: In vitro agar dilution MIC test, Jewell and Pearmain agar medium. It counts as cell-based. The following applies: Enterobacter cloacae, Code A13, inoculum size ~10^5 CFU. The source says: (§1) The results set out in the following Table are illustrative of the biological activity of one of the preferred compounds of the present invention, that of Example 4. The following results are those obtained on a standard in vitro test system using Jewell and Pearmain agar medium. The antibacterial activity is described in terms of the minimum inhibitory concentration (MIC) determined by agar - dilution technique with an inoculum size of ~10^5 CFU.
For orientation: In agar dilution the substance is mixed into plates at graded concentrations.

The test system of data set [2] is Ps. aeruginosa. The description is as above. The format is cell-based. The following applies: Pseudomonas aeruginosa, Code A21, inoculum size ~10^5 CFU.
Text: as §1

Data set [3] concerns Staph. aureus. The description is as above. The format is cell-based. The following applies: Staphylococcus aureus, Code A6, inoculum size ~10^5 CFU.
Text: as §1

In data set [4] the test system is Serratia marescens. Described as above. The format is cell-based. The conditions noted are these: Code A16, inoculum size ~10^5 CFU.
Text: as §1

Data set [5] deals with E. coli. The data set is described as above. It counts as cell-based. The conditions noted are these: Escherichia coli, Code A8, inoculum size ~10^5 CFU.
Text: as §1

Data set [6] deals with K. aerogenes. The description is as above. The format is cell-based. The conditions noted are these: Klebsiella aerogenes, Code A10, inoculum size ~10^5 CFU.
Text: as §1

Data set [7] has as its system Strep. pyogenes. The description is as above. The format is cell-based. The following applies: Streptococcus pyogenes, Code A1, inoculum size ~10^5 CFU.
Text: as §1

The test system of data set [8] is Proteus mirabilis. The description is as above. The format is cell-based. The conditions noted are these: Code A18, inoculum size ~10^5 CFU.
Text: as §1

The test system of data set [9] is Salmonella dublin. The description is as above. It counts as cell-based. The conditions noted are these: Salmonella enterica, Code A20, inoculum size ~10^5 CFU.
Text: as §1

The nature of data set [10]: Toxicity observation after subcutaneous administration to mice. It counts as in vivo. The following applies: dose four times the minimum effective dose which protected 50% of the mice against infection with Salmonella dublin. The method, then:
Thus the compound 7-(4-[3-(3-cyano-2-methylisothioureido)propyl]imidazol-2-yl)amino-3-(1-methyl-lH-tetrazol-5-yl)thiomethylceph-3-em-4-carboxylic acid (Example 4) was administered subcutaneously to mice at a dose four times that of the minimum effective dose which protected 50% of the mice against infection with Salmonella dublin.

Data on 1 compound can be found in EP0082648A2, “Cephalosporin derivatives” (IMPERIAL CHEMICAL INDUSTRIES PLC, priority 1981, dated 1983).

In brackets after ≈: the same amount, converted by molar mass.

As usually defined, the MIC is the lowest concentration found to suppress growth. Read a high MIC as weaker potency. As to `CSC(=NC#N)NCCCc1c[nH]c(NC2C(=O)N3C(C(=O)O)=C(CSc4nnnn4C)CS[C@H]23)n1` (stereo partly shown) [Example 4, 7-(4-[3-(3-cyano-2-methylisothioureido)propyl]imidazol-2-yl)amino-3-(1-methyl-1H-tetrazol-5-yl)thiomethylceph-3-em-4-carboxylic acid], the MIC was 32 µg/mL (≈ 58.2 µM) in [1]; above 128 µg/mL in data set [2]; 16 µg/mL (≈ 29.1 µM) in [3]; 4 µg/mL (≈ 7.28 µM) in data set [4]; 0.06 µg/mL (≈ 0.109 µM) in data set [5]; 0.12 µg/mL (≈ 0.218 µM) in [6]. The MIC in [7] amounted to 8 µg/mL (≈ 14.6 µM); in data set [8], 1 µg/mL (≈ 1.82 µM); in [9], 0.03 µg/mL (≈ 0.0546 µM). In addition, the “overt toxic symptoms or side effects” value in [10] is “No overt toxic symptoms or side effects attributable to the administered compound were noted”.
